The data set concerns CCRIS mutagenicity, Ames/micronucleus/aberration tests. Kind of data set: CCRIS mutagenicity studies.
[1] abbreviates: Test System: AMES SALMONELLA TYPHIMURIUM, Strain/Indicator: TA98, Metabolic Activation: NONE, Method: STANDARD PLATE.
[2] abbreviates: Test System: AMES SALMONELLA TYPHIMURIUM, Strain/Indicator: TA100, Metabolic Activation: NONE, Method: STANDARD PLATE.
Setting [3] is: Test System: AMES SALMONELLA TYPHIMURIUM, Strain/Indicator: TA102, Metabolic Activation: NONE, Method: STANDARD PLATE.
Where [4] appears, read: Test System: AMES SALMONELLA TYPHIMURIUM, Strain/Indicator: TA98, Metabolic Activation: RAT, LIVER, S-9, AROCLOR 1254, Method: STANDARD PLATE.
[5] abbreviates: Test System: AMES SALMONELLA TYPHIMURIUM, Strain/Indicator: TA100, Metabolic Activation: RAT, LIVER, S-9, AROCLOR 1254, Method: STANDARD PLATE.

Activity calls are given as the source filed them. How the calls were made is not given here.

For the compound `COc1cc(Cc2cnc(N)nc2N)cc(OC)c1OC`, the mutagenic call is “inactive; negative” (Test System: AMES SALMONELLA TYPHIMURIUM, Strain/Indicator: TA97A, Metabolic Activation: NONE, Method: STANDARD PLATE); “inactive; negative” (Test System: AMES SALMONELLA TYPHIMURIUM, Strain/Indicator: TA97A, Metabolic Activation: RAT, LIVER, S-9, PHENOBARBITAL, Method: STANDARD PLATE); “active; positive” under setting [1]; “active; positive” (Test System: AMES SALMONELLA TYPHIMURIUM, Strain/Indicator: TA98, Metabolic Activation: RAT, LIVER, S-9, PHENOBARBITAL, Method: STANDARD PLATE); “inactive; negative” under setting [2]; “inactive; negative” (Test System: AMES SALMONELLA TYPHIMURIUM, Strain/Indicator: TA100, Metabolic Activation: RAT, LIVER, S-9, PHENOBARBITAL, Method: STANDARD PLATE). Besides, the mutagenic call runs as follows: under setting [3], “inactive; negative”; (Test System: AMES SALMONELLA TYPHIMURIUM, Strain/Indicator: TA102, Metabolic Activation: RAT, LIVER, S-9, PHENOBARBITAL, Method: STANDARD PLATE) “inactive; negative”; (Test System: AMES SALMONELLA TYPHIMURIUM, Strain/Indicator: TA1538, Metabolic Activation: NONE, Method: STANDARD PLATE) “active; positive”; (Test System: AMES SALMONELLA TYPHIMURIUM, Strain/Indicator: TA1538, Metabolic Activation: RAT, LIVER, S-9, PHENOBARBITAL, Method: STANDARD PLATE) “active; positive”; (Test System: E.COLI, Strain/Indicator: WP2UVRA/PKM101, Metabolic Activation: NONE, Method: PREINCUBATION) “inactive; negative”; (Test System: E.COLI, Strain/Indicator: WP2UVRA/PKM101, Metabolic Activation: RAT LIVER S-9, PHENOBARBITAL AND 5,6-BENZOFLAVONE, Method: PREINCUBATION) “inactive; negative”.
As for `Cc1cccc2ccc3c4ccccc4ccc3c12`, the mutagenic call is, setting by setting: (Test System: AMES SALMONELLA TYPHIMURIUM, Strain/Indicator: TA100, Metabolic Activation: RAT, LIVER, MICROSOMES, 4-METHYLCHRYSENE, Method: STANDARD PLATE) “inactive; negative”; (Test System: AMES SALMONELLA TYPHIMURIUM, Strain/Indicator: TA100, Metabolic Activation: RAT, LIVER, MICROSOMES, AROCLOR 1254, Method: STANDARD PLATE) “active; positive”; (Test System: AMES SALMONELLA TYPHIMURIUM, Strain/Indicator: TA100, Metabolic Activation: RAT, LIVER, MICROSOMES, Method: STANDARD PLATE) “inactive; negative”.
Take `CO[C@@H]1[C@H](C)O[C@@H](O[C@@H]2C[C@H](Oc3cc(O)c4c(O)c5c(cc4c3)C[C@@H]([C@H](OC)C(=O)[C@@H](O)[C@@H](C)O)[C@H](O[C@@H]3C[C@H](OC4C[C@H](O)[C@@H](O)[C@H](C)O4)[C@@H](O)[C@H](C)O3)C5=O)O[C@H](C)[C@@H]2O)C[C@@H]1O` (stereo partly specified): the mutagenic call (Test System: CHINESE HAMSTER OVARY, Strain/Indicator: CHO (HGPRT)/6-THIOGUANINE, Metabolic Activation: NONE, Method: PREINCUBATION) is “active; positive”.
For the compound `CCS(=O)(=O)CCn1c([N+](=O)[O-])cnc1C`, the mutagenic call is “inactive; negative” under setting [4]; “active; positive” (Test System: AMES SALMONELLA TYPHIMURIUM, Strain/Indicator: TA100(1,8-DNP6), Metabolic Activation: NONE, Method: PREINCUBATION (AEROBIC)); “active; positive” (Test System: AMES SALMONELLA TYPHIMURIUM, Strain/Indicator: TA100(NR), Metabolic Activation: NONE, Method: PREINCUBATION (AEROBIC)); “active; positive” (Test System: AMES SALMONELLA TYPHIMURIUM, Strain/Indicator: TA100(NR), Metabolic Activation: NONE, Method: PREINCUBATION (ANAEROBIC)); “active; positive” (Test System: AMES SALMONELLA TYPHIMURIUM, Strain/Indicator: TA100(NR), Metabolic Activation: RAT, LIVER, S-9, AROCLOR 1254, Method: PREINCUBATION (AEROBIC)); “active; positive” (Test System: AMES SALMONELLA TYPHIMURIUM, Strain/Indicator: TA100(NR), Metabolic Activation: RAT, LIVER, S-9, AROCLOR 1254, Method: PREINCUBATION (ANAEROBIC)). In addition, the mutagenic call (Test System: AMES SALMONELLA TYPHIMURIUM, Strain/Indicator: TA100(NR), Metabolic Activation: RAT, LIVER, S-9, AROCLOR 1254, Method: STANDARD PLATE) is “active; positive”; the mutagenic call (Test System: AMES SALMONELLA TYPHIMURIUM, Strain/Indicator: TA100, Metabolic Activation: NONE, Method: PREINCUBATION (AEROBIC)) is “active; positive”; the mutagenic call (Test System: AMES SALMONELLA TYPHIMURIUM, Strain/Indicator: TA100, Metabolic Activation: NONE, Method: PREINCUBATION (ANAEROBIC)) was “active; positive”; the mutagenic call under setting [2] was “active; positive”; the mutagenic call (Test System: AMES SALMONELLA TYPHIMURIUM, Strain/Indicator: TA100, Metabolic Activation: RAT, LIVER, S-9, AROCLOR 1254, Method: PREINCUBATION (AEROBIC)) is “active; positive”; the mutagenic call (Test System: AMES SALMONELLA TYPHIMURIUM, Strain/Indicator: TA100, Metabolic Activation: RAT, LIVER, S-9, AROCLOR 1254, Method: PREINCUBATION (ANAEROBIC)) was “active; positive”. The mutagenic call is “active; positive” under setting [5]; “active; positive” (Test System: AMES SALMONELLA TYPHIMURIUM, Strain/Indicator: UTH8414, Metabolic Activation: NONE, Method: STANDARD PLATE); “active; positive” (Test System: AMES SALMONELLA TYPHIMURIUM, Strain/Indicator: YG1029, Metabolic Activation: NONE, Method: PREINCUBATION (AEROBIC)).
Turning to `CCC(CCC(C)O)COC(=O)CCCCC(=O)O` (stereo unspecified), the mutagenic call (Test System: AMES SALMONELLA TYPHIMURIUM, Strain/Indicator: TA97, Metabolic Activation: NONE, Method: STANDARD PLATE) is “inactive; negative”; the mutagenic call (Test System: AMES SALMONELLA TYPHIMURIUM, Strain/Indicator: TA97, Metabolic Activation: RAT, LIVER, S-9, AROCLOR 1254, Method: STANDARD PLATE) is “inactive; negative”; the mutagenic call (Test System: AMES SALMONELLA TYPHIMURIUM, Strain/Indicator: TA97, Metabolic Activation: RAT, LIVER, S-9, DI(2-ETHYLHEXYL)PHTHALATE, Method: STANDARD PLATE) is “inactive; negative”; the mutagenic call under setting [1] was “inactive; negative”; the mutagenic call under setting [4] was “inactive; negative”; the mutagenic call (Test System: AMES SALMONELLA TYPHIMURIUM, Strain/Indicator: TA98, Metabolic Activation: RAT, LIVER, S-9, DI(2-ETHYLHEXYL)PHTHALATE, Method: STANDARD PLATE) is “inactive; negative”. In addition, the mutagenic call is, setting by setting: under setting [2], “inactive; negative”; under setting [5], “inactive; negative”; (Test System: AMES SALMONELLA TYPHIMURIUM, Strain/Indicator: TA100, Metabolic Activation: RAT, LIVER, S-9, DI(2-ETHYLHEXYL)PHTHALATE, Method: STANDARD PLATE) “inactive; negative”; under setting [3], “inactive; negative”; (Test System: AMES SALMONELLA TYPHIMURIUM, Strain/Indicator: TA102, Metabolic Activation: RAT, LIVER, S-9, AROCLOR 1254, Method: STANDARD PLATE) “inactive; negative”; (Test System: AMES SALMONELLA TYPHIMURIUM, Strain/Indicator: TA102, Metabolic Activation: RAT, LIVER, S-9, DI(2-ETHYLHEXYL)PHTHALATE, Method: STANDARD PLATE) “inactive; negative”.
`Cc1nn(C)c(NC(=O)CNCCCN2CCCCC2C)c1C(=O)c1ccccc1F` (stereo unspecified): the mutagenic call was “active; positive” (Test System: AMES SALMONELLA TYPHIMURIUM, Strain/Indicator: TA98, Metabolic Activation: RAT, LIVER, S-9, AROCLOR 1254, Method: PREINCUBATION); “inactive; negative” under setting [4]; “active; positive” (Test System: AMES SALMONELLA TYPHIMURIUM, Strain/Indicator: TA100, Metabolic Activation: RAT, LIVER, S-9, AROCLOR 1254, Method: PREINCUBATION); “inactive; negative” under setting [5].
For the compound `CC1(C(=O)NCc2ccccc2)CO1` (stereo unspecified), the mutagenic call (Test System: AMES SALMONELLA TYPHIMURIUM, Strain/Indicator: TA100, Metabolic Activation: MOUSE, LIVER, S-9, AROCLOR 1254, Method: STANDARD PLATE) was “active; positive” and the mutagenic call under setting [2] was “active; positive”.
Take `[CH3][Sn]([CH3])([Cl])[Cl]`: the mutagenic call was “inactive; negative” (Test System: AMES SALMONELLA TYPHIMURIUM, Strain/Indicator: TA98, Metabolic Activation: NONE, Method: SUSPENSION/PLATE) and “inactive; negative” (Test System: AMES SALMONELLA TYPHIMURIUM, Strain/Indicator: TA100, Metabolic Activation: NONE, Method: SUSPENSION/PLATE).
